The values that follow come from ChEMBL document CHEMBL1201862, “PubChem BioAssay data set” (2004).

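Five compound concentrations were applied to cells in 96-well plates for 48 hours; endpoints were derived by simple linear interpolation of the resulting dose-response curve. GI50 is the concentration that inhibits growth by half.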 Active and inactive are the calls of the source. No stated cut-off is given here; in the data, active = GI50 up to about 1.1 µM and inactive = higher. A value given as a limit tells only on which side of the number the result lay.

Among the test systems are SK-OV-3; SF-539; SK-MEL-5; UACC-62; Hs-578T; IGROV-1; OVCAR-3; MCF7; MOLT-4; KM12; SNB-19; NCI-H226; LOX IMVI; 786-0; M14; SN12C; T47D; MDA-MB-231; A549; COLO 205.
Common to all, as to assay: NCI tumour cell line growth inhibition, 48 h

Take `CCCC(=O)Nc1cn(COC)c(C(=O)N2C[C@@H]3C[C@]34C2=CC(=O)c2[nH]cc(C)c24)n1`: the GI50 was 11.2 µM (inactive) with SK-OV-3; 11.7 µM (inactive) in the test on SF-539; 4.36 µM (inactive) with SK-MEL-5; 7.62 µM (inactive) in the test on UACC-62; 15.1 µM (inactive) with Hs-578T; 9.25 µM (inactive) with IGROV-1. Also, the GI50 in the test with OVCAR-3 is 10.3 µM (inactive); in the test with MCF7, 2.45 µM (inactive); in the test on MOLT-4, 0.857 µM (active); in the test on KM12 it was > 5 µM (inactive); with SNB-19, 18.5 µM (inactive); in the test with NCI-H226, 10.5 µM (inactive). The GI50 was 6.31 µM (inactive) in the test with LOX IMVI; 5.15 µM (inactive) in the test with 786-0; 13.4 µM (inactive) in the test on M14; 11.2 µM (inactive) in the test with SN12C; 4.85 µM (inactive) in the test with T47D; 8.47 µM (inactive) with MDA-MB-231. The results for the GI50 with A549 and in the test with COLO 205 were 10.8 µM (inactive) and 7.91 µM (inactive), respectively.
Turning to `C/C(=C\CO)CC/C=C(\C)CNc1c(F)c(F)c(F)c(F)c1F`, the GI50 with SK-OV-3 is 63.8 µM (inactive); in the test on SF-539 it was 20.8 µM (inactive); in the test with SK-MEL-5, 15.8 µM (inactive); in the test on UACC-62, 17.2 µM (inactive); with Hs-578T it was 33.7 µM (inactive); in the test with IGROV-1, 49.5 µM (inactive). Also, the GI50 is 20.2 µM (inactive) with OVCAR-3; 29.2 µM (inactive) in the test on MCF7; 29.6 µM (inactive) in the test with MOLT-4; 27.5 µM (inactive) in the test with KM12; 27.7 µM (inactive) with SNB-19; 28.1 µM (inactive) with NCI-H226. In addition, the GI50 with LOX IMVI was 29.2 µM (inactive); with 786-0 it was 44.1 µM (inactive); in the test on M14 it was 38.2 µM (inactive); with SN12C, 20.2 µM (inactive); with T47D, 61.2 µM (inactive); in the test with MDA-MB-231, 19 µM (inactive). Also, the GI50 with A549 is 28.7 µM (inactive); in the test with COLO 205 it was 27.5 µM (inactive).
Consider `COC(=O)c1ccc(/N=N/N(C)COc2ccc(C#N)cc2)cc1`, for which the GI50 in the test on SK-OV-3 was > 100 µM (inactive); in the test on SF-539, > 100 µM (inactive); with SK-MEL-5 it was 45.1 µM (inactive); in the test on Hs-578T, 59.4 µM (inactive); with IGROV-1 it was > 100 µM (inactive); in the test with OVCAR-3 it was > 100 µM (inactive). Further, the GI50 in the test on MCF7 is > 100 µM (inactive); with MOLT-4, 82.2 µM (inactive); with KM12, 70.8 µM (inactive); in the test with SNB-19, > 100 µM (inactive); in the test on NCI-H226, > 100 µM (inactive); in the test on LOX IMVI it was 56.1 µM (inactive). In addition, the GI50 in the test with 786-0 was > 100 µM (inactive); in the test with M14, > 100 µM (inactive); with SN12C, > 100 µM (inactive); in the test on T47D it was 74 µM (inactive); in the test on MDA-MB-231, > 100 µM (inactive); in the test on A549, 70 µM (inactive). For the same compound, in the test on COLO 205, the GI50 is 61.2 µM (inactive).
Turning to `Oc1ccc(Oc2cc3c(cc2Oc2ccc(O)cc2)-c2nc-3nc3[nH]c(nc4nc(nc5[nH]c(n2)c2cc(Oc6ccc(O)cc6)c(Oc6ccc(O)cc6)cc52)-c2cc(Oc5ccc(O)cc5)c(Oc5ccc(O)cc5)cc2-4)c2cc(Oc4ccc(O)cc4)c(Oc4ccc(O)cc4)cc32)cc1`, the GI50 is > 100 µM (inactive) with SK-OV-3; > 100 µM (inactive) with SF-539; 60.1 µM (inactive) in the test with SK-MEL-5; 76 µM (inactive) in the test on UACC-62; > 100 µM (inactive) in the test with Hs-578T; > 100 µM (inactive) in the test on IGROV-1. Further, the GI50 in the test on OVCAR-3, with MCF7, with MOLT-4, with KM12, with SNB-19 and in the test on NCI-H226 was > 100 µM (inactive) in each case. The GI50 in the test on LOX IMVI is 39.9 µM (inactive); in the test on 786-0, > 100 µM (inactive); in the test on M14, 16.7 µM (inactive); in the test on SN12C, > 100 µM (inactive); with T47D it was > 100 µM (inactive); in the test with MDA-MB-231, 23.5 µM (inactive). Moreover, the GI50 in the test with A549 and in the test on COLO 205 was > 100 µM (inactive) throughout.
With `C=C1C(=O)O[C@@H]2C[C@@H](C)[C@@H]3C=CC(=O)[C@@]3(C)[C@@H](OC(=O)CCCC(=O)O[C@H]3[C@@H]4C(=C)C(=O)O[C@@H]4C[C@@H](C)[C@@H]4C=CC(=O)[C@]43C)[C@H]12`, the GI50 is 1.35 µM (inactive) in the test with SK-OV-3; 0.0762 µM (active) in the test on SF-539; 0.134 µM (active) in the test with SK-MEL-5; 0.0565 µM (active) in the test on UACC-62; 0.104 µM (active) in the test with Hs-578T; 0.112 µM (active) in the test with IGROV-1. Further, the GI50 is 0.0398 µM (active) with OVCAR-3; 0.0348 µM (active) in the test on MCF7; < 0.01 µM (active) in the test on MOLT-4; 0.231 µM (active) with KM12; 1.05 µM (active) with SNB-19; 0.505 µM (active) with NCI-H226. The GI50 in the test on LOX IMVI was 0.0518 µM (active); in the test with 786-0 it was 0.0171 µM (active); in the test with M14, 0.0217 µM (active); in the test on SN12C, 0.0402 µM (active); in the test on T47D, 0.0214 µM (active); with MDA-MB-231, 0.0284 µM (active). Also, the GI50 with A549 was 1.63 µM (inactive); in the test on COLO 205 it was 0.0197 µM (active).
`O=C1C(c2ccccc2)=[N+]([O-])c2ccccc21`: the GI50 in the test with SK-OV-3 was 17.6 µM (inactive); with SF-539, 18.8 µM (inactive); in the test on SK-MEL-5 it was 11.1 µM (inactive); in the test with UACC-62 it was 15.5 µM (inactive); in the test with Hs-578T, 29.8 µM (inactive); in the test with OVCAR-3, 13.6 µM (inactive). For the same compound, the GI50 with MCF7 is 1.64 µM (inactive); in the test on MOLT-4, 21.6 µM (inactive); with KM12, 19.8 µM (inactive); in the test on SNB-19, 19 µM (inactive); in the test on NCI-H226, 17.1 µM (inactive); in the test with LOX IMVI, 3.35 µM (inactive). Besides, the GI50 in the test with 786-0 was 17.7 µM (inactive); in the test with M14 it was 12.4 µM (inactive); with SN12C, 17.3 µM (inactive); in the test with T47D, 1.97 µM (inactive); in the test with MDA-MB-231, 11.7 µM (inactive); in the test with A549, 19.9 µM (inactive). Besides, the GI50 in the test on COLO 205 is 16.2 µM (inactive).
As for `O=[N+]([O-])c1ccc2c3c1[C@H]1O[C@H]1c1cccc(c1-3)[C@@H]1O[C@H]21`, the GI50 in the test on SK-OV-3 is 4.22 µM (inactive); with SF-539, 2.3 µM (inactive); in the test with SK-MEL-5, 3.02 µM (inactive); with UACC-62, 1.86 µM (inactive); in the test with Hs-578T it was 3.15 µM (inactive); with OVCAR-3, 2.63 µM (inactive). Besides, the GI50 in the test on MCF7 was 2.11 µM (inactive); in the test on MOLT-4, 3.01 µM (inactive); in the test on KM12, 2.35 µM (inactive); with SNB-19, 3.54 µM (inactive); in the test with NCI-H226, 45.9 µM (inactive); in the test on LOX IMVI, 0.305 µM (active). The GI50 is 1.96 µM (inactive) in the test with 786-0; 1.71 µM (inactive) in the test with M14; 2.12 µM (inactive) with SN12C; 2.08 µM (inactive) in the test with T47D; 2.01 µM (inactive) in the test with MDA-MB-231; 3.2 µM (inactive) in the test with A549. Further, the GI50 in the test with COLO 205 was 2.05 µM (inactive).
